What was measured:
[1] = Lipophilicity, log D of the compound in octanol at pH 7.4; assay type: physicochemical
[2] = Ratio of total drug uptake in brain to blood in Han Wistar rat after 1 hr; assay type: ADME, tissue-based; conditions: brain and blood, read-out: BBR
[3] = system: human transporter (not named); assay: Apparent permeability of the compound in MDCK cells expressing human transporter […]; assay type: ADME, cell-based, Canis lupus familiaris; conditions: dog

logD [1]	Kp at 1 h [2]	Papp [3] [×10⁻⁶ cm/s]	Structure (SMILES)
2	0.3	–	Cc1ccnc2c(C(=O)N[C@H]3C4CC5CC3C[C@](O)(C5)C4)cnn12
2.4	–	–	Cc1ccnc2c(C(=O)N[C@H]3C4CC5CC3C[C@](C#N)(C5)C4)cnn12
1.4	–	–	O=C(N[C@H]1C2CC3CC1C[C@](O)(C3)C2)c1cnn2cccnc12
1.5	–	–	O=C(N[C@H]1C2CC3CC1C[C@](O)(C3)C2)c1cnn2ccccc12
2.6	–	49	CO[C@]12CC3CC(C1)[C@@H](NC(=O)c1cnn4cc(C)cnc14)C(C3)C2
1.8	0.3	44	O=C(N[C@H]1C2CC3CC1C[C@](O)(C3)C2)c1cnn2cc(Cl)cnc12
1.2	–	–	O=C(N[C@H]1C2CC3CC1C[C@](O)(C3)C2)c1cnc2cccnn12
1.9	–	–	Cc1ccn2ncc(C(=O)N[C@H]3C4CC5CC3C[C@](O)(C5)C4)c2n1
3.5	–	–	O=C(NC1C2CC3CC(C2)CC1C3)c1cnn2cccnc12 (stereo not given)
2.4	–	–	COCc1cc(C)n2ncc(C(=O)N[C@H]3C4CC5CC3C[C@](C#N)(C5)C4)c2n1
1.8	–	–	COCc1cc(C)n2ncc(C(=O)N[C@H]3C4CC5CC3C[C@](O)(C5)C4)c2n1
2.5	0.6	41	N#C[C@]12CC3CC(C1)[C@@H](NC(=O)c1cnn4cc(Cl)cnc14)C(C3)C2
2	–	–	Cc1cc(C)n2ncc(C(=O)N[C@H]3C4CC5CC3C[C@](O)(C5)C4)c2n1
0.6	–	–	N#Cc1cnc2c(C(=O)N[C@H]3C4CC5CC3C[C@](O)(C5)C4)cnn2c1
2.1	–	–	COCc1cc(C)nc2c(C(=O)N[C@H]3C4CC5CC3C[C@](O)(C5)C4)cnn12
2.3	–	–	Cc1cc(C(F)(F)F)n2ncc(C(=O)N[C@H]3C4CC5CC3C[C@](O)(C5)C4)c2n1
1.7	0.3	29	Cc1cnc2c(C(=O)N[C@H]3C4CC5CC3C[C@](O)(C5)C4)cnn2c1
1.8	–	–	COc1cnc2c(C(=O)N[C@H]3C4CC5CC3C[C@](O)(C5)C4)cnn2c1
2	–	–	O=C(N[C@H]1C2CC3CC1C[C@](O)(C3)C2)c1cnn2c(C(F)(F)F)ccnc12
2.9	–	–	Cc1cc(C)n2ncc(C(=O)N[C@H]3C4CC5CC3C[C@](C#N)(C5)C4)c2n1
2.8	–	–	O=C(N[C@H]1C2CC3CC1C[C@](O)(C3)C2)c1cnn2c(C(F)F)cc(C3CC3)nc12
2.2	–	–	Cc1cc(C(F)F)n2ncc(C(=O)N[C@H]3C4CC5CC3C[C@](O)(C5)C4)c2n1
1.6	–	–	N#C[C@]12CC3CC(C1)[C@@H](NC(=O)c1cnn4cc(CCO)cnc14)C(C3)C2
2.3	1.6	46	Cc1cnc2c(C(=O)N[C@H]3C4CC5CC3C[C@](C#N)(C5)C4)cnn2c1
2.7	–	–	COCc1cc(C)nc2c(C(=O)N[C@H]3C4CC5CC3C[C@](C#N)(C5)C4)cnn12
